Experimental data: ChEMBL document CHEMBL4118257, “Discovery of 2-(3,5-difluoro-4-methylsulfonaminophenyl)propanamides as potent TRPV1 antagonists” (Bioorg Med Chem Lett, 2018); call rule not given here

Columns and labels:
[1] = system: Mus musculus; experiment: Toxicity in formalin-induced pain mouse model assessed as hyperthermia at 10 mg/kg, po; type: organism-based; settings: in vivo
[2] = target: T1, Transient receptor potential cation channel subfamily V member 1 (Homo sapiens, UniProt Q8NER1); experiment: Antagonist activity at recombinant human TRPV1 expressed in CHOK1 cells assessed as reduction in low pH-induced Ca2+ flux after 15 mins by fluo-4-based FLIPR assay; type: cell-based
T1 sequence (Q8NER1 whole entry): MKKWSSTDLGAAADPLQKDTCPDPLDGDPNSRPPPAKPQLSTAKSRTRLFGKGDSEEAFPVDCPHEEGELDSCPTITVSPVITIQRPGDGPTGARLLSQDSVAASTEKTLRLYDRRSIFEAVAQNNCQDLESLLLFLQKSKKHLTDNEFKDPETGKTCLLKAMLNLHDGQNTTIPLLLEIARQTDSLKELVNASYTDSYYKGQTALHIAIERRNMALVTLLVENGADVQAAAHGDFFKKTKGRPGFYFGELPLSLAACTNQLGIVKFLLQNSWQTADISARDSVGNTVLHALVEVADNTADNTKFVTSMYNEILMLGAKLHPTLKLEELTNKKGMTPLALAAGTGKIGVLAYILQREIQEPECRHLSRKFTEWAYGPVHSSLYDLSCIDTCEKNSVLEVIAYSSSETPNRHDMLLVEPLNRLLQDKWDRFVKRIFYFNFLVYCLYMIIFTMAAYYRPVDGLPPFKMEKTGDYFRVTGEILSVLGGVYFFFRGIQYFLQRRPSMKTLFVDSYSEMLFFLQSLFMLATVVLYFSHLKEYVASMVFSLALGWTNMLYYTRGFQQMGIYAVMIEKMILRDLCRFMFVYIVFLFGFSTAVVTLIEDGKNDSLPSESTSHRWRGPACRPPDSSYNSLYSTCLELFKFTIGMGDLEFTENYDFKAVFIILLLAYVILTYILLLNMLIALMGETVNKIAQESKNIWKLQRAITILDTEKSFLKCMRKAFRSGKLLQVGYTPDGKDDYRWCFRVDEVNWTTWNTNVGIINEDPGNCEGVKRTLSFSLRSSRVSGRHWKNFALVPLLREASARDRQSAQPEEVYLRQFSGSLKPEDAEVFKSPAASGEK

[3] = system: Rattus norvegicus; experiment: In vivo antagonist activity at TRPV1 in rat assessed as reduction in capsaicin-induced hypothermia at 3 mg/kg, po relative to control; type: functional
[4] = target: T1, Transient receptor potential cation channel subfamily V member 1; experiment: Antagonist activity at recombinant human TRPV1 expressed in CHOK1 cells assessed as reduction in temperature-induced Ca2+ flux after 15 mins at 45 degC by fluo-4-based FLIPR assay; type: cell-based
[5] = target: Transient receptor potential cation channel subfamily V member 1 (Rattus norvegicus, UniProt O35433); experiment: Antagonist activity at recombinant rat TRPV1 expressed in HEK293 cells assessed as reduction in capsaicin-induced Ca2+ flux preincubated for 3 mins followed by capsaicin addition measured by calcium 4-dye based FLIPR assay; type: cell-based
Sequence of Transient receptor potential cation channel subfamily V member 1 (Rattus norvegicus, UniProt O35433) (O35433 whole entry): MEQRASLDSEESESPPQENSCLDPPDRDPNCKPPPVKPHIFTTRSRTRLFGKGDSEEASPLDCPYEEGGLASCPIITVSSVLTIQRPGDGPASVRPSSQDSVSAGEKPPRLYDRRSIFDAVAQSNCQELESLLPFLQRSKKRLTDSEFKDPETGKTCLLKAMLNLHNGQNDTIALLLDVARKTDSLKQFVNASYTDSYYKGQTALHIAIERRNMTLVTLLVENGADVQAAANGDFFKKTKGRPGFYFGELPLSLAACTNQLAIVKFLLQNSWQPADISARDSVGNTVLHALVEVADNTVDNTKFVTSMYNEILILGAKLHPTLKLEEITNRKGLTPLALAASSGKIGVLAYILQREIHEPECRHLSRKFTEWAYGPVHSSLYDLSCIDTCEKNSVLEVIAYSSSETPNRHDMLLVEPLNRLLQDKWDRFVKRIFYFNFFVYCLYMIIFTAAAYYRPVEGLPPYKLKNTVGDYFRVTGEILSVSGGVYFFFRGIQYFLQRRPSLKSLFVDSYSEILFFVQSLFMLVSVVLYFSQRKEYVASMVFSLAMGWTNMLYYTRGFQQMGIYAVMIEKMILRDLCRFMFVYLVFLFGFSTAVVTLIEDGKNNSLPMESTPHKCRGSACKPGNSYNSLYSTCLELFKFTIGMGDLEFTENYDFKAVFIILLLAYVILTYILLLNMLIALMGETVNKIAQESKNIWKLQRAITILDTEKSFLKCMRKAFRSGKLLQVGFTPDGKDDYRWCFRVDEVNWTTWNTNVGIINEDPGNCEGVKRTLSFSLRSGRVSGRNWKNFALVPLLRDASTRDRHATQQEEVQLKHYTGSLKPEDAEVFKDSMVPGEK

[6] = system: Rattus norvegicus; experiment: In vivo antagonist activity at TRPV1 in rat assessed as reduction in capsaicin-induced hypothermia at 10 mg/kg, po relative to control; type: functional
[7] = system: Mus musculus; experiment: Analgesic activity in formalin-induced pain mouse model assessed reduction in pain response at 3 mg/kg, iv measured at 20 to 30 mins post administration by formalin test relative to control; type: functional
[8] = target: T1, Transient receptor potential cation channel subfamily V member 1; experiment: Antagonist activity at recombinant human TRPV1 expressed in CHOK1 cells assessed as reduction in capsaicin-induced Ca2+ flux after 15 mins by fluo-4-based FLIPR assay; type: cell-based

| SMILES | Ki ([8]; read-out: Ki) [nM] | also measured |
| --- | --- | --- |
| CC1CCN(c2nc(C(F)(F)F)ccc2CNC(=O)C(C)c2cc(F)c(NS(C)(=O)=O)c(F)c2)CC1 (stereo not drawn) | 0.2 | Activity [1]: Toxic; IC50 [2]: 8.7 nM; inhibition in vivo at 3 mg/kg [3]: 57%; IC50 [4]: 8.1 nM; Ki [5]: 0.1 nM; inhibition in vivo at 10 mg/kg [6]: 100%; inhibition in vivo at 3 mg/kg [7]: 43% |
| COc1cc(C(C)C(=O)NCc2ccc(C(F)(F)F)nc2N2CCC(C)CC2)cc(OC)c1NS(C)(=O)=O (stereo not drawn) | 1.6 |  |
| CC1CCN(c2nc(C(F)(F)F)ccc2CNC(=O)C(C)c2cc(F)c(NS(C)(=O)=O)c(Br)c2)CC1 (stereo not drawn) | 0.7 |  |
| CC1CCN(c2nc(C(F)(F)F)ccc2CNC(=O)C(C)c2ccc(NS(=O)(=O)C(F)(F)F)c(F)c2)CC1 (stereo not drawn) |  | Ki [8]: Not Active |
| CC1CCN(c2nc(C(F)(F)F)ccc2CNC(=O)C(C)c2ccc(NS(C)(=O)=O)c(Br)c2)CC1 (stereo not drawn) | 3.2 |  |
| CC1CCN(c2nc(C(F)(F)F)ccc2CNC(=O)C(C)c2ccc(N(CC#N)S(C)(=O)=O)c(F)c2)CC1 (stereo not drawn) |  | Ki [8]: Not Active |
| COc1cc(C(C)C(=O)NCc2ccc(C(F)(F)F)nc2N2CCC(C)CC2)cc(F)c1NS(C)(=O)=O (stereo not drawn) | 0.3 |  |
| CC1CCN(c2nc(C(F)(F)F)ccc2CNC(=O)C(C)c2ccc(NS(C)(=O)=O)c(Cl)c2)CC1 (stereo not drawn) | 2.3 |  |
| C=CC(=O)N(c1ccc(C(C)C(=O)NCc2ccc(C(F)(F)F)nc2N2CCC(C)CC2)cc1F)S(C)(=O)=O (stereo not drawn) | 2.4 |  |
| COc1cc(C(C)C(=O)NCc2ccc(C(F)(F)F)nc2N2CCC(C)CC2)ccc1NS(C)(=O)=O (stereo not drawn) | 0.8 |  |
| CC1CCN(c2nc(C(F)(F)F)ccc2CNC(=O)C(C)c2ccc(NS(N)(=O)=O)c(F)c2)CC1 (stereo not drawn) | 2.7 |  |
